From patent publication US20210220434A1, “Treatment of Vascular Occlusion by Activation of Notch Signaling” (The Regents of the University of California, priority 2018, published 2021)

How the values were obtained:
[1] = tested on: distal middle cerebral artery occlusion (dMCAO) mouse model; test: Collateral artery size and function after dMCAO stroke induction; format: in vivo
From the text: (§1) FIGS. 6A, 6B, and 6C. […] FIG. 6A depicts the time course of the experiment, with recombinant DLL4 administered one day prior to and for seven days following dMCAO stroke induction. FIG. 6B: Collateral artery diameter, velocity, and flux, and the area between the vertical lines denotes the period of DLL4 administration. Triangles: rDLL4, Circles: Control. Control, n=5, Treated; n=5. *P<0.05, **P<0.01. FIG. 6C depicts ladder test results for mice are subject to behavior test at 15 to 17 days after experimental stroke, the scores being the average of the two measurements.
(§2) Collateral artery size and function was assessed at seven and fourteen days following injury.

[2] = tested on: distal middle cerebral artery occlusion (dMCAO) mouse model; test: Ladder test of neurological function after dMCAO; format: in vivo
From the text: as §1, §2

[3] = wild type C57BL/6J mice, dMCAO, daily iv for eight days from the day before dMCAO, day 7, vs control

## rDLL4: recombinant mouse DLL4 (Delta-like ligand 4), a Notch activating ligand, given intravenously
[1]; day 14 after dMCAO, 7 days after administration was halted, vs control
  collateral artery size and function (diameter, velocity, flux): Significant improvements in the treated mice persisted
[1]; following dMCAO, FIG. 6 legend
  cerebral blood flow: preserves cerebral blood flow
  growth of collaterals: improves growth of collaterals
[1]; [3]
  collateral artery diameter: significantly improved
  collateral artery flux: significantly improved
  collateral artery velocity: significantly improved
[2]; day 15 and 17 after dMCAO, vs control
  neurological function, ladder test: higher in the treated mice
[2]; following dMCAO, FIG. 6 legend
  neurological function: improving neurological function
